Data on two molecules can be found in patent US11453642B2, “Oxygenated amino- or ammonium-containing sulfonic acid, phosphonic acid and carboxylic acid derivatives and their medical use” (GRI BIO, INC., priority 2011, dated 2022).

Structures are written as SMILES. Values joined by “and” are separate entries in the source; they are usually repeats but may differ in a detail not shown here. Equal values may be shown once. Marks after values point to notes of the source that are not given here.

The series deals with allergic contact dermatitis response in mice. The experiment in a line: Allergic contact dermatitis (TDI) model in mice, mouse ear swelling test. Type of series: in vivo. As to the method:
The anti-inflammatory and anti-allergic effects of compounds 1a and 1c were assessed in a mouse model of allergic contact dermatitis, a response driven primarily by T helper type 2 (Th2) cells. […] In this model, an allergic dermatitis response is obtained by sensitizing mice to TDI and subsequently challenging them with antigen by topical administration onto the ears. A quantitative assessment of anti-inflammatory and anti-allergic effects of topically or orally administered test compounds is possible by measuring the resulting ear swelling. The advantages of the allergic contact dermatitis model (Zöllner et al., Bioessays 26:693-6 (2004)) are reproducibility and reliability (>90% of BALB/c mice respond to sensitization), a short induction protocol, quantitative assessment by measuring ear thickness, atopic dermatitis-like skin lesions can be induced, and clinically relevant pharmaceuticals, such as corticosteroids, calcineurin-inhibitors and PDE4-inhibitors, are effective in this model.
Female BALB/c-mice were obtained from Charles River (Sulzfeld, Germany) at age 8 weeks. All animals were housed in groups of eight per cage at 22° C. with a 12 h light/dark-cycle, Water and a standard diet (Altromin, Lage/Lippe, Germany) were available ad libitum. All animals were acclimatized for one week before experimental procedures were commenced.
Experimental procedures for BALB/c mice housing, TDI sensitization and challenge, and measurement of ear thickness were performed as previously described (Baumer et al., J Pharm Pharmacol, 55:1107-1114 (2003)) with the following modifications. For active sensitization, 100 μL of 5% (w/v) TDI was administered to the shaved and stripped abdominal epidermis on day one, and for the next three consecutive days, 50 μL of 5% (My) TDI was applied. The allergic reaction was boosted 21 days later by application of 50 μL of 0.5% (w/v) TDI. For the examination of test compound effects, the left ears were used for the TDI challenge (20 μL of 0.5% in acetone) and ear thickness measured 3 h before and 24 h after challenge.
Group size was n=7 mice unless otherwise stated. Test compounds were freshly prepared before administration.
Administration time: to determine optimal time for administration treatment groups were treated orally by gavage with 100 mg/kg of compound 1a or 1c (suspended in 0.5% tylose, 10 mL/kg) 1, 4 or 16 h before topical TDI challenge. One group was treated with 100 mg/kg miltefosine orally, 16 h before challenge (based on available data for optimal administration time for miltefosine) and vehicle treated mice received tylose (10 mL/kg) orally, 4 h before challenge.
Dose-response: two groups of mice were treated orally with compound 1a at 25 mg/kg or 100 mg/kg suspended in 0.5% tylose, 4 h before topical TDI challenge. Vehicle treated mice received 0.5% tylose orally 4 h before challenge. As a positive control, dexamethasone was administered in saline solution at 1 mg/kg or 3 mg/kg, 2 h and 30 min before challenge and 1 h after challenge. The dose and dosing scheme for dexamethasone was based on previous experience showing a maximal effect in this model.
Compound 1a was administered to two groups of mice topically in 20 μl of a 2% or 6% solution in propyleneglycol. The suspension was heated to 60° C. and mixed using a thermomixer (Eppendorf) until it became clear. The solution was applied, 2 h before topical TDI challenge by administration of 10 μl onto each of the inner and outer surfaces of the left ears. A vehicle group (17=5) was treated with propyleneglycol. As a positive control, diflorasone, diacetate was administered at 0.01% (low dose) and 0.05% (high dose) in 20 μl acetone, 2 h before challenge. A basal control group was left untreated.
Mean and standard error of the mean (SEM) were calculated from individual ear edema values. […]

Setting [1] is: administration time study, 100 mg/kg oral, 1 h before TDI challenge.
The mark [2] stands for this setting: administration time study, 100 mg/kg oral, 4 h before TDI challenge.
Where [3] appears, read: administration time study, 100 mg/kg oral, 16 h before TDI challenge.

As for `CCCCCCCCCCCCN(C)CC(O)CS(=O)(=O)O` (stereo not shown) [Compound 1c, 2-hydroxy-3-(N-methyldodecylammonio)propanesulfonate], the “Inhibition of mouse ear swelling” value reads like this: under setting [1], 58.1** %; under setting [2], 68.5*** %; under setting [3], 42.7^§ %.

As to `CCCCCCCCCCCCCCCCN(C)CC(O)CS(=O)(=O)O` (stereo not shown) [Compound 1a, 2-hydroxy-3-(N-methylhexadecylammonio)propane-sulfonate], the “Inhibition of mouse ear swelling” value runs as follows: under setting [1], 72.6*** %; under setting [2], 73.4*** %; under setting [3], 29.0%; (dose-response study, 25 mg/kg oral, 4 h before TDI challenge) 45% and 44.9*** %; (dose-response study, 100 mg/kg oral, 4 h before TDI challenge) 45% and 44.4*** %; (topical, 20 μl of 2% solution in propyleneglycol, 2 h before TDI challenge) 67.9** %. In addition, the “Inhibition of mouse ear swelling” value (topical, 20 μl of 6% solution in propyleneglycol, 2 h before TDI challenge) was 63.1** %. Further, the “inhibition relative to the highest dose of dexamethasone” value (dose-response study, oral, versus dexamethasone 3 mg/kg) was 52%. Also, the “toxicity at the doses used” value (oral 25 or 100 mg/kg) is recorded as “no toxicity”. The “reduction of ear swelling compared to vehicle control” value (topical solution at 2% or 6%) is “up to 68%”.
